Assay results reported in PMC7265341, “Quantifying CDK inhibitor selectivity in live cells” (Nature Communications, 2020).
Like-named read-outs stand apart in the source and are kept apart here.

What was measured:
CDK1/Cyclin E1 = CDK1/Cyclin E1 (Homo sapiens, UniProt P06493); test: NanoBRET live-cell target engagement, CDK1-NanoLuc/Cyclin E1 in HEK-293; assay type: binding; conditions: CDK1/E1, read-out: Inhibition at 10µM (%)
CDK2/Cyclin E1 = CDK2/Cyclin E1 (Homo sapiens, UniProt P24941); test: NanoBRET live-cell target engagement, CDK2-NanoLuc/Cyclin E1 in HEK-293; assay type: binding; conditions: CDK2/E1, read-out: Inhibition at 10µM (%)
CDK4/Cyclin D1 = CDK4/Cyclin D1 (Homo sapiens, UniProt P11802); test: NanoBRET live-cell target engagement, NanoLuc-CDK4/Cyclin D1 in HEK-293; assay type: binding; conditions: CDK4/D1, read-out: Inhibition at 10µM (%)
CDK5/CDK5R1 = CDK5/CDK5R1 (Homo sapiens, UniProt Q00535); test: NanoBRET live-cell target engagement, CDK5-NanoLuc/CDK5R1 in HEK-293; assay type: binding; conditions: CDK5/CDK5R1, read-out: Inhibition at 10µM (%)
CDK6/Cyclin D1 = CDK6/Cyclin D1 (Homo sapiens, UniProt Q00534); test: NanoBRET live-cell target engagement, NanoLuc-CDK6/Cyclin D1 in HEK-293; assay type: binding; conditions: CDK6/D1, read-out: Inhibition at 10µM (%)
CDK8/Cyclin C = CDK8/Cyclin C (Homo sapiens, UniProt P49336); test: NanoBRET live-cell target engagement, NanoLuc-CDK8/Cyclin C in HEK-293; assay type: binding; conditions: CDK8/C, read-out: Inhibition at 10µM (%)
CDK9/Cyclin K = CDK9/Cyclin K (Homo sapiens, UniProt P50750); test: NanoBRET live-cell target engagement, NanoLuc-CDK9/Cyclin K in HEK-293; assay type: binding; conditions: CDK9/K, read-out: Inhibition at 10µM (%)
CDK9/Cyclin K, sequence (P50750 whole entry): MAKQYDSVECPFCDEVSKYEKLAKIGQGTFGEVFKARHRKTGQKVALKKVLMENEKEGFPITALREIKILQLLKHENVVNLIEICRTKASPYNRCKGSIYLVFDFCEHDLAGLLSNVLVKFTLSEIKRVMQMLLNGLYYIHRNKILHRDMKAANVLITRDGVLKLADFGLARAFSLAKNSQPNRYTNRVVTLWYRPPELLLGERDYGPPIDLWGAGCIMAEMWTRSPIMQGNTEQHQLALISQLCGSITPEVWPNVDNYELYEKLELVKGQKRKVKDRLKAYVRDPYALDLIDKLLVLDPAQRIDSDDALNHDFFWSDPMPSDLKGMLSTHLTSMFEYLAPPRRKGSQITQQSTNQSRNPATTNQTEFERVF
CDK9/Cyclin K, sequence (O75909 whole entry partner): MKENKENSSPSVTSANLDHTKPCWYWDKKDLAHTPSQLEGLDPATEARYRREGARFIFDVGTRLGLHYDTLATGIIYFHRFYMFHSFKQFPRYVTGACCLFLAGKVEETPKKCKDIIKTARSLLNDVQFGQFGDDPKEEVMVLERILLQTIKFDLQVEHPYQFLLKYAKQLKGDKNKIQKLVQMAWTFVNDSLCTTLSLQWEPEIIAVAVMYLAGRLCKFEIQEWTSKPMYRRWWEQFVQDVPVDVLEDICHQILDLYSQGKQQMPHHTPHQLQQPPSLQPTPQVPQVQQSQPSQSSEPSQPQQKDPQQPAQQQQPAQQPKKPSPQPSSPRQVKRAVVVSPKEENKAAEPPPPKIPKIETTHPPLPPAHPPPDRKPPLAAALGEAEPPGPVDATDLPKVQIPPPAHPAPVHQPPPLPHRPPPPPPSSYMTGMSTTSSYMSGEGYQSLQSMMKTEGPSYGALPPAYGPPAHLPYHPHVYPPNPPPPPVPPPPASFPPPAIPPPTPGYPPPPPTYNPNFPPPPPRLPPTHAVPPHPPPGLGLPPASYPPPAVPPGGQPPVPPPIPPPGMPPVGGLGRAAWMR

CDK11A/Cyclin L2 = target: T1, CDK11A/Cyclin L2 (Homo sapiens, UniProt Q9UQ88); test: NanoBRET live-cell target engagement, CDK11A-NanoLuc/Cyclin L2 in HEK-293; assay type: binding; conditions: CDK11a/L2, read-out: Inhibition at 10µM (%)
T1 sequence (Q9UQ88 1-783): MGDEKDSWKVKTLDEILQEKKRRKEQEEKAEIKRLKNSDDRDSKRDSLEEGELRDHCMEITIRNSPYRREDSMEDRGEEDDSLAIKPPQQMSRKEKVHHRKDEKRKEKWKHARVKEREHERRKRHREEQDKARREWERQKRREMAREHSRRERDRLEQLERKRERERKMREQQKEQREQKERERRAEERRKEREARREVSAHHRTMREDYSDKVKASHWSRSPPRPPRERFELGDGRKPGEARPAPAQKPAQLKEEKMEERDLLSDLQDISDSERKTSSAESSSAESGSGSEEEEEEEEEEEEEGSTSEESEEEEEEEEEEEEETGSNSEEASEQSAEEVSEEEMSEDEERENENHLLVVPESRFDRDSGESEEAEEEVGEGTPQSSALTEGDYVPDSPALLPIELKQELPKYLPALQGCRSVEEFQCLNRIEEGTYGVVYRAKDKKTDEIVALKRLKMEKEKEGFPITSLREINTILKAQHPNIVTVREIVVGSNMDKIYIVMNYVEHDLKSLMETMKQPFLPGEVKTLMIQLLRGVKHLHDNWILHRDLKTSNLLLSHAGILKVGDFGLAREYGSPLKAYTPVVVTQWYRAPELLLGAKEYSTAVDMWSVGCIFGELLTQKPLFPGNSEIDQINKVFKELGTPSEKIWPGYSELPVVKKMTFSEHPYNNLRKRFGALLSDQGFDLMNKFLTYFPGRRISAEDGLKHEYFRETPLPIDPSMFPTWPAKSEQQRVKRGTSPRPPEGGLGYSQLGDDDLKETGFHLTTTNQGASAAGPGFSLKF

CDK11B/Cyclin L2 = CDK11B/Cyclin L2 (Homo sapiens, UniProt P21127); test: NanoBRET live-cell target engagement, CDK11B-NanoLuc/Cyclin L2 in HEK-293; assay type: binding; conditions: CDK11b/L2, read-out: Inhibition at 10µM (%)
CDK11B/Cyclin L2, sequence (P21127 1-782 isoform P21127-2): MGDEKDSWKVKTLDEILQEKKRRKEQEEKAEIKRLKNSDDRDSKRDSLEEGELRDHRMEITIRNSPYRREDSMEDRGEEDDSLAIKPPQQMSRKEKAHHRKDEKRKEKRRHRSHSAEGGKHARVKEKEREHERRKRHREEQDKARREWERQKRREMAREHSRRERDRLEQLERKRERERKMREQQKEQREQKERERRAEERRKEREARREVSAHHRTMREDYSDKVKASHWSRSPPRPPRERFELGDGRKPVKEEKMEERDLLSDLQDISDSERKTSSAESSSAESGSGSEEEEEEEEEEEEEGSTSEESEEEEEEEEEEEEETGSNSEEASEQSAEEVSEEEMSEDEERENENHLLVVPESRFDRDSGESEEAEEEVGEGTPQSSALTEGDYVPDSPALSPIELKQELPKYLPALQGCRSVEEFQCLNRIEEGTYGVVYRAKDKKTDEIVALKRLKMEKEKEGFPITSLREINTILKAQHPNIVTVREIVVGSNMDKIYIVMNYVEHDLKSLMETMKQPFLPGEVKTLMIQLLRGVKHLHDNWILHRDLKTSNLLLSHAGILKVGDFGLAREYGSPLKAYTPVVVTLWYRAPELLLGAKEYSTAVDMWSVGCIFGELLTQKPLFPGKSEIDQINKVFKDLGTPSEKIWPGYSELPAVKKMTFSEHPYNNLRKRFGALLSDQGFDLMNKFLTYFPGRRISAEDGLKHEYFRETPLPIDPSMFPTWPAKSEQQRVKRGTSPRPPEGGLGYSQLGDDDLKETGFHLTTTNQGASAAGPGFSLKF

CDK12/Cyclin K = CDK12/Cyclin K (Homo sapiens, UniProt Q9NYV4); test: NanoBRET live-cell target engagement, CDK12-NanoLuc/Cyclin K in HEK-293; assay type: binding; conditions: CDK12/K, read-out: Inhibition at 10µM (%)
CDK12/Cyclin K, sequence (Q9NYV4 1-1481 isoform Q9NYV4-2): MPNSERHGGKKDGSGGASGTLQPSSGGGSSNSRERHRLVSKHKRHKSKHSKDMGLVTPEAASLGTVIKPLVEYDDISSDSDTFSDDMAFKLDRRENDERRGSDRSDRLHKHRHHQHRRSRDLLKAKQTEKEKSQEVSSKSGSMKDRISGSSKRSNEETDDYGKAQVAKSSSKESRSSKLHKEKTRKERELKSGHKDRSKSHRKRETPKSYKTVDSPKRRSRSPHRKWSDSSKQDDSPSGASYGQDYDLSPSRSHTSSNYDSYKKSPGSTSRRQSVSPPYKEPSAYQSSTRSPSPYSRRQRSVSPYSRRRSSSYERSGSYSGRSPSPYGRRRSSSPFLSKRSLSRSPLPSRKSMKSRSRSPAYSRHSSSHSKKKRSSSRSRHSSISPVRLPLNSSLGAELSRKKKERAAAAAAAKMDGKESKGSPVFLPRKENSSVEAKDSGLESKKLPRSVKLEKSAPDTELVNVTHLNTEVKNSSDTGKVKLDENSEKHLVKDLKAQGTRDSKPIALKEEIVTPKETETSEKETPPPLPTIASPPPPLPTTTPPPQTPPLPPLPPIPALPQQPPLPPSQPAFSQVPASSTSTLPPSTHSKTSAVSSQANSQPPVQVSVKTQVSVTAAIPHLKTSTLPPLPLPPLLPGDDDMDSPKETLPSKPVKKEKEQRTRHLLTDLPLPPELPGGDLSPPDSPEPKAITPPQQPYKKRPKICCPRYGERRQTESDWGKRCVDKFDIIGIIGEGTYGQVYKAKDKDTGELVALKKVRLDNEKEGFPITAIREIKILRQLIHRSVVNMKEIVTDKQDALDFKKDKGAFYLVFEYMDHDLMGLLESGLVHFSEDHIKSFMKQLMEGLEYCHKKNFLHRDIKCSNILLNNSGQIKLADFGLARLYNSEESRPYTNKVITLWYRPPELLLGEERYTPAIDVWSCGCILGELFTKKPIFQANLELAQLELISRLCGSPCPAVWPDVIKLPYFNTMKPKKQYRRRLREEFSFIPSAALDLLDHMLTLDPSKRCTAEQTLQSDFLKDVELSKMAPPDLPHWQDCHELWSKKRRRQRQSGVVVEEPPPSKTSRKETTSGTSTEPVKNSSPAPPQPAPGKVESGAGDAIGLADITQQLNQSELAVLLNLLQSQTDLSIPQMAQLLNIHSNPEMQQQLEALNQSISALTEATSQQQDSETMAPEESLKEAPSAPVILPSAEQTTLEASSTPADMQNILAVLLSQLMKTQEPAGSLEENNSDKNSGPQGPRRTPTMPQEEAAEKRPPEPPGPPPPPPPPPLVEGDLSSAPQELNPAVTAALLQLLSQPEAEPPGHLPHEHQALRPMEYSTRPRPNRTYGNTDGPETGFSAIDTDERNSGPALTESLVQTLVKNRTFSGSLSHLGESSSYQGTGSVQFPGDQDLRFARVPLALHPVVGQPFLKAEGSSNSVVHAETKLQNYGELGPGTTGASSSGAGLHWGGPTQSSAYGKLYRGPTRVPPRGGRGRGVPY
CDK12/Cyclin K, sequence (O75909 whole entry partner): as the sequence (O75909 whole entry partner) above

CDK13/Cyclin K = CDK13/Cyclin K (Homo sapiens, UniProt Q14004); test: NanoBRET live-cell target engagement, CDK13-NanoLuc/Cyclin K in HEK-293; assay type: binding; conditions: CDK13/K, read-out: Inhibition at 10µM (%)
CDK14/Cyclin Y = CDK14/Cyclin Y (Homo sapiens, UniProt O94921); test: NanoBRET live-cell target engagement, CDK14-NanoLuc/Cyclin Y in HEK-293; assay type: binding; conditions: CDK14/Y, read-out: Inhibition at 10µM (%)
CDK15/Cyclin Y = CDK15/Cyclin Y (Homo sapiens, UniProt Q96Q40); test: NanoBRET live-cell target engagement, NanoLuc-CDK15/Cyclin Y in HEK-293; assay type: binding; conditions: CDK15/Y, read-out: Inhibition at 10µM (%)
CDK15/Cyclin Y, sequence (Q96Q40 whole entry): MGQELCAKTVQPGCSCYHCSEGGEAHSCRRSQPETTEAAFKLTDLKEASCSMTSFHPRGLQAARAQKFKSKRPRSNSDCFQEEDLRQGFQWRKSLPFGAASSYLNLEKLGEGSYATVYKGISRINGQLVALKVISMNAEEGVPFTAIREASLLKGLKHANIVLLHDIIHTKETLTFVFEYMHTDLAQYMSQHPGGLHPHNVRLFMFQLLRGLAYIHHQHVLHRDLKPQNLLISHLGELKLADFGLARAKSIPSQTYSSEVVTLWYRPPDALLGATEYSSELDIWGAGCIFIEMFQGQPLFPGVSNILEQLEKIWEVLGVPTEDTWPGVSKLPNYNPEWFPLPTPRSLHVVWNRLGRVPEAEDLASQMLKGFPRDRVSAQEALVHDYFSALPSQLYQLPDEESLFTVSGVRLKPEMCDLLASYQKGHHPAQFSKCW
CDK15/Cyclin Y, sequence (Q8ND76 whole entry partner): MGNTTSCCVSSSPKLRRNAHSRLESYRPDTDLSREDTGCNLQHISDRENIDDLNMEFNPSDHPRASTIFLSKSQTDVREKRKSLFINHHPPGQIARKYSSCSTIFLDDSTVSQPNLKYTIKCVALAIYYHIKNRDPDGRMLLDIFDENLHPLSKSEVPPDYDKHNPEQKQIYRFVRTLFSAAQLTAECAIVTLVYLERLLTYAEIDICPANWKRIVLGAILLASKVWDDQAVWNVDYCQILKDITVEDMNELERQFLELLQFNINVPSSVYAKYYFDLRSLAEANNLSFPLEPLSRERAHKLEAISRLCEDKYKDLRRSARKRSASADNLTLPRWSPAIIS

CDK16/Cyclin Y = CDK16/Cyclin Y (Homo sapiens, UniProt Q00536); test: NanoBRET live-cell target engagement, CDK16-NanoLuc/Cyclin Y in HEK-293; assay type: binding; conditions: CDK16/Y, read-out: Inhibition at 10µM (%)
CDK17/Cyclin Y = CDK17/Cyclin Y (Homo sapiens, UniProt Q00537); test: NanoBRET live-cell target engagement, CDK17-NanoLuc/Cyclin Y in HEK-293; assay type: binding; conditions: CDK17/Y, read-out: Inhibition at 10µM (%)
CDK18/Cyclin Y = CDK18/Cyclin Y (Homo sapiens, UniProt Q07002); test: NanoBRET live-cell target engagement, CDK18-NanoLuc/Cyclin Y in HEK-293; assay type: binding; conditions: CDK18/Y, read-out: Inhibition at 10µM (%)
CDK18/Cyclin Y, sequence (Q07002 whole entry): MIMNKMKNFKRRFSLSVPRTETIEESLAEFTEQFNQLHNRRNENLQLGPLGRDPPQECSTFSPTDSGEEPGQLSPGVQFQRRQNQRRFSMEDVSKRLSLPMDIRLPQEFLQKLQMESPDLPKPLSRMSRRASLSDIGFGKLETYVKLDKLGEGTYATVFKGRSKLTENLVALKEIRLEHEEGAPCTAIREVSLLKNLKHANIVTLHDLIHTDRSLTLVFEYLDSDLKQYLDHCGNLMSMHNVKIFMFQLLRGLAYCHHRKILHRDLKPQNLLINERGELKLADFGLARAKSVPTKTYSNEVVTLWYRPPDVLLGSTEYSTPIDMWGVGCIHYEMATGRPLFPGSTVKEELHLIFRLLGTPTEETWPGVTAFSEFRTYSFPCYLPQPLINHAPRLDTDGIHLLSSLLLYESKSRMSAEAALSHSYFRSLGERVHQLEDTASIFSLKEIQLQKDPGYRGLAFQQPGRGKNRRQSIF
CDK18/Cyclin Y, sequence (Q8ND76 whole entry partner): as the sequence (Q8ND76 whole entry partner) above

CDK20/Cyclin H = CDK20/Cyclin H (Homo sapiens, UniProt Q8IZL9); test: NanoBRET live-cell target engagement, NanoLuc-CDK20/Cyclin H in HEK-293; assay type: binding; conditions: CDK20/H, read-out: Inhibition at 10µM (%)
CDK19/Cyclin C = CDK19/Cyclin C (Homo sapiens, UniProt Q9BWU1); test: NanoBRET live-cell target engagement, NanoLuc-CDK19/Cyclin C in HEK-293; conditions: read-out: Inhibition at 10µM (%), CDK19/C
CDK10/Cyclin L2 = CDK10/Cyclin L2 (Homo sapiens, UniProt Q15131); test: NanoBRET live-cell target engagement, CDK10-NanoLuc/Cyclin L2 in HEK-293; conditions: read-out: Inhibition at 10µM (%), CDK10/L2
CDK10/Cyclin L2, sequence (Q15131 whole entry): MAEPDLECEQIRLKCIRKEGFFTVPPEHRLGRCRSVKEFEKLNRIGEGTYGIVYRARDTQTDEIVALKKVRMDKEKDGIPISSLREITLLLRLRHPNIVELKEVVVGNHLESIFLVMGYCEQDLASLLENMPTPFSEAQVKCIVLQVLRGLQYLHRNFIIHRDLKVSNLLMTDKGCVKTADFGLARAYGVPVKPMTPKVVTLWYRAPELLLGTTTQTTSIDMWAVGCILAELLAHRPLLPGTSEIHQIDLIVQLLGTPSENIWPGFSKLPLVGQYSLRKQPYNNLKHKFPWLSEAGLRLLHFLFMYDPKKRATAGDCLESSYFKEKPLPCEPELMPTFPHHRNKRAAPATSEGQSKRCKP

inhibition at 10 µM (CDK1/Cyclin E1; average): 7.7% | inhibition at 10 µM (CDK1/Cyclin E1; experiment 1): 12.1% | inhibition at 10 µM (CDK1/Cyclin E1; experiment 2): 3.2% | inhibition at 10 µM (CDK2/Cyclin E1; average): -5.8% | inhibition at 10 µM (CDK2/Cyclin E1; experiment 1): -11% | inhibition at 10 µM (CDK2/Cyclin E1; experiment 2): -0.6% | inhibition at 10 µM (CDK4/Cyclin D1; average): 93.4% | inhibition at 10 µM (CDK4/Cyclin D1; experiment 1): 96.8% | inhibition at 10 µM (CDK4/Cyclin D1; experiment 2): 90.1% | inhibition at 10 µM (CDK5/CDK5R1; average): 12.2% | inhibition at 10 µM (CDK5/CDK5R1; experiment 1): 5.5% | inhibition at 10 µM (CDK5/CDK5R1; experiment 2): 18.9% | inhibition at 10 µM (CDK6/Cyclin D1; average): 98.9% | inhibition at 10 µM (CDK6/Cyclin D1; experiment 1): 97% | inhibition at 10 µM (CDK6/Cyclin D1; experiment 2): 101% | inhibition at 10 µM (CDK8/Cyclin C; average): 4.9% | inhibition at 10 µM (CDK8/Cyclin C; experiment 1): 6.7% | inhibition at 10 µM (CDK8/Cyclin C; experiment 2): 3% | inhibition at 10 µM (CDK9/Cyclin K; average): 29.3% | inhibition at 10 µM (CDK9/Cyclin K; experiment 1): 31% | inhibition at 10 µM (CDK9/Cyclin K; experiment 2): 27.6% | inhibition at 10 µM (CDK11A/Cyclin L2; average): 7.4% | inhibition at 10 µM (CDK11A/Cyclin L2; experiment 1): 2% | inhibition at 10 µM (CDK11A/Cyclin L2; experiment 2): 12.8% | inhibition at 10 µM (CDK11B/Cyclin L2; average): 16.1% | inhibition at 10 µM (CDK11B/Cyclin L2; experiment 1): 0.226% | inhibition at 10 µM (CDK11B/Cyclin L2; experiment 2): 32% | inhibition at 10 µM (CDK12/Cyclin K; average): 8.7% | inhibition at 10 µM (CDK12/Cyclin K; experiment 1): -0.9% | inhibition at 10 µM (CDK12/Cyclin K; experiment 2): 18.4% | inhibition at 10 µM (CDK13/Cyclin K; average): -0.247% | inhibition at 10 µM (CDK13/Cyclin K; experiment 1): 4.2% | inhibition at 10 µM (CDK13/Cyclin K; experiment 2): -4.7% | inhibition at 10 µM (CDK14/Cyclin Y; average): 29.2% | inhibition at 10 µM (CDK14/Cyclin Y; experiment 1): 25.1% | inhibition at 10 µM (CDK14/Cyclin Y; experiment 2): 33.2% | inhibition at 10 µM (CDK15/Cyclin Y; average): 14.9% | inhibition at 10 µM (CDK15/Cyclin Y; experiment 1): 5% | inhibition at 10 µM (CDK15/Cyclin Y; experiment 2): 24.7% | inhibition at 10 µM (CDK16/Cyclin Y; experiment 1): 77.1% | inhibition at 10 µM (CDK16/Cyclin Y; experiment 2): 32% | inhibition at 10 µM (CDK17/Cyclin Y; average): 58.5% | inhibition at 10 µM (CDK17/Cyclin Y; experiment 1): 75.6% | inhibition at 10 µM (CDK17/Cyclin Y; experiment 2): 41.4% | inhibition at 10 µM (CDK18/Cyclin Y; average): 19.5% | inhibition at 10 µM (CDK18/Cyclin Y; experiment 1): 22.1% | inhibition at 10 µM (CDK18/Cyclin Y; experiment 2): 16.8% | inhibition at 10 µM (CDK20/Cyclin H; experiment 1): 10.2% | inhibition at 10 µM (CDK20/Cyclin H; experiment 2): 7.2% | inhibition at 10 µM (CDK19/Cyclin C; average): 13% | inhibition at 10 µM (CDK19/Cyclin C; experiment 1): 7.9% | inhibition at 10 µM (CDK19/Cyclin C; experiment 2): 18.2% | inhibition at 10 µM (CDK10/Cyclin L2; average): 7.8% | inhibition at 10 µM (CDK10/Cyclin L2; experiment 1): 9.5% | inhibition at 10 µM (CDK10/Cyclin L2; experiment 2): 6.2%
SMILES: CC(C)N1CCN(c2ccc(Nc3ncc4cc5n(c4n3)C3(CCCCC3)CNC5=O)nc2)CC1 [Lerociclib]
